The values below come from patent US20250320253A1, “TRANSMEMBRANE PEPTIDIC ANTAGONISTS OF PLEXIN-A1 AND THEIR THERAPEUTIC USES” (UNIVERSITE DE STRASBOURG, priority 2021, published 2025).

Entries after “also recorded” stand apart in the source; their conditions may differ. Ends that are not written are not given here.

Data set [1] can be described thus: MTP solubility in PBS and PBS/LDS. The class given is physicochemical. The method, then:
The solubility of the MTPs was tested either in phosphate buffered saline (PBS) or in a mixture of PBS and lithium dodecyl sulfate (LDS).

Data set [2] deals with T1, NRP1-PlexinA1 interaction (Mus musculus, UniProt P70206).
T1 construct: endogenous in cells; host or cells: Oli-neu cells
Put plainly: Proximity ligation assay of Neuropilin-1/Plexin-A1 receptor dimers in Oli-neu cells. The class given is cell-based. To be noted: for Normalized interactions Nrp1-PlexinA1/cell: Oli-neu cells treated with peptides at 10^−7 M, vehicle 100; for reduction of the number of NRP1/PlexinA1 interactions: 10^−7 M. The method, then: After fixation with 1% PFA for 10 min, slices were permeabilized with PBS/0.1% Triton X-100. Primary antibodies (NRP1 from Evitria, 1:500; and Plexin-A1 from Abcam, ab23391, 1:200) were incubated overnight at 4° C. in PBS. The proximity ligation assay allowing to visualize receptor dimers (Neuropilin-1/Plexin-A1) was then performed according to the manufacturer's recommendations with the “detection orange” kit (Sigma). Quantification of the interactions (fluorescent dots at the cell surface) was performed using ImageJ software.

Data set [3] deals with oligodendrocyte cell line Oli-neu. In words: Cell migration assay (Transwell CIM-Plate, xCELLigence), rescue of Sema3A negative effect. To be noted: 20 ng/ml Sema3A. The class given is cell-based. The method, then:
Cells were pre-incubated 1 h with vehicle alone or MTP. The 1×10^5 cells were seeded in the upper chamber with 150 μl of medium. The bottom well contained 160 μl of medium supplemented with 2% fetal bovine serum for chemoattraction and 20 ng/ml Sema3A (Recombinant Mouse Semaphorin 3A Fc Chimera Protein Carrier Free ref: 5926-S3/CF; RnD Systems) for repulsion. Analysis was performed after 8 h of migration according to the manufacturer's instructions. Data are expressed as a percentage of positive control migration, i.e. the migration of Oli-neu with 2% serum and without Sema3A.

Data set [4] deals with cuprizone-induced demyelination. To be noted: mouse, in vivo. The method, then: It was next assessed whether […] can induce remyelination of the CNS and motor function recovery following demyelination induced by cuprizone, a copper-chelating agent, in a mouse model. Oral intoxication with cuprizone induces oligodendrocyte apoptosis within a few days, which is closely followed by the activation of the innate immune cells in the brain, i.e., astrocytes and microglia, finally leading to demyelination of distinct white and grey matter brain areas. […] (10 μg/kg) for 6 consecutive days (n=10) • (e) 5 weeks cuprizone, followed by treatment with […] (100 μg/kg) for 6 consecutive days (n=10) • (f) 5 weeks cuprizone, followed by treatment with vehicle for 11 consecutive days (n=10) • (g) 5 weeks cuprizone, followed by treatment with […] (10 μg/kg) for 11 consecutive days (n=10) • (h) 5 weeks cuprizone, followed by treatment with […] (100 μg/kg) for 11 consecutive days (n=10) Acute demyelination was induced by intoxicating for five consecutive weeks 8-week-old (19-21 g) male mice a diet containing 0.25% cuprizone [bis(cyclohexanone)oxaldihydrazone; Sigma-Aldrich Inc., St Louis, MO, USA] mixed into a ground standard rodent chow. […]

Data set [5] deals with Plexin-A1 (on Oli-neu cells) (UniProt P70206). Put plainly: proximity ligation assay on Oli-neu cells, peptide at 10^-7 M for 1 h; NRP1/Plexin-A1 dimers counted.
Data set [6] shares this target. Put plainly: proximity ligation assay on Oli-neu cells, dose response; inhibition of NRP1/Plexin-A1 interactions.
Where [7] appears, read: Solubilization vehicle PBS 100%.

On to “TLPAIVGIGGGGGLLLEVIVEVLIAYEEEEE [DRAUPNIR]”, for which the Measured concentration in data set [1] (setting [7]) was 260 µM.
For TLPAIVSIGGGVVLLLEVIVEVAYEEEEE [MIMMING], in data set [2], the “Normalized interactions Nrp1-PlexinA1/cell” value came to 49.4. The “reduction of the number of NRP1/PlexinA1 interactions” value in data set [2] (Oli-neu cells) is on record as −51%. For the same molecule, the IC50 in data set [2] (Oli-neu cells, dose response, read-out: IC50, number of NRP1/PlexinA1 interactions) stood at 17 nM. For the same molecule, the “rescue of Sema3A negative effect on migration” value in data set [3] (8 h of migration) was “able to counteract; also recorded: rescue migration”.
Consider TLPAITGLVGGVGLLLEVIVEVAYEEEEE [GUNGNIR], for which the “Normalized interactions Nrp1-PlexinA1/cell” value in data set [2] amounted to 40.4. For the same molecule, the “reduction of the number of NRP1/PlexinA1 interactions” value in data set [2] (Oli-neu cells) is −60%. This molecule showed an IC50 in data set [3] (n=3) of 1.2 nM. Further, in data set [1] (setting [7]), the Measured concentration is 248 µM. Further, in data set [4], the body weight entry is recorded as “no differences were observed” and the “percentage loss of body weight relative to vehicle-treated groups” value is “significantly less pronounced”.
Molecule TLPAIVGIGGGGGELLLVIVEVLIYEEEEE [RATI] yielded a Measured concentration in data set [1] (setting [7]) of 224 µM.
Consider “TLPAIGVITLVGLGVLELVAEGVYEEEEE [HODR, reference compound]”, for which the Measured concentration in data set [1] (setting [7]) was 189 µM.
On to “TLPAIVGIGGGGGLLLLVIVAVLIAYKRK [MTP-PlexA1, reference compound]”, for which the Measured concentration in data set [1] (setting [7]) came to 0 µM; in data set [1] (Solubilization vehicle PBS 100% LDS 72 mM), 360 µM.
Regarding “TLPVIGVIVLVGSAVLELIAEGVYEEEEE [SURTR, reference compound]”, the “Normalized interactions Nrp1-PlexinA1/cell” value in data set [2] was 96.8.
As to TLPAITGLVGGVGLLLEVIVEVAYEEEEE [GUNGNIR], the Normalized interactions Nrp1-PlexinA1/cell (normalized to vehicle = 100) in data set [5] came out at 40.4. For the same molecule, the IC50 in data set [6] was determined as 0.074 nM.
Take TLPVIGVIVLVGSAVLELIAEGVYEEEEE [SURTR]: in data set [5], the Normalized interactions Nrp1-PlexinA1/cell (normalized to vehicle = 100) turned out to be 96.8.
On the same count and under the same terms, in the case of TLPAIVSIGGGVVLLLEVIVEVAYEEEEE [MIMMING] it was 49.4.
